Laboratory results taken from US12357652B2, “Formulations of phosphoramidate derivatives of nucleoside drugs” (priority 2015, dated 2025).

Key:
[1] = Stability of NUC-3373 aqueous infusion solution in 250 ml 0.9% saline bags; format: physicochemical
Method: The stability of the aqueous infusion solution was also evaluated using three different doses of NUC-3373 (1,000 mg, 2,000 mg and 3,000 mg) diluted in 250 ml 0.9% saline bags at two storage conditions (5° C. and 20° C.).

[2] = Alternative aqueous infusion solutions of NUC-3373 (osmolarity, stability); format: physicochemical
cancer models = settings: versus 5-fluorouracil; cited from earlier work
[3] = versus 5-FU; cited from earlier work
[4] = 2,000 mg NUC-3373 in 250 ml 0.9% saline infusion bag, 8 hours, 5° C.
[5] = 2,000 mg NUC-3373 in 250 ml 0.9% saline infusion bag, 8 hours, 20° C.
[6] = 2,000 mg NUC-3373 in 250 ml 0.9% saline infusion bag, 24 hours, 5° C.
[7] = 2,000 mg NUC-3373 in 250 ml 0.9% saline infusion bag, 24 hours, 20° C.
[8] = 2,000 mg NUC-3373 in 250 ml 0.9% saline infusion bag, 48 hours, 5° C.
[9] = 2,000 mg NUC-3373 in 250 ml 0.9% saline infusion bag, 48 hours, 20° C.
[10] = 3,000 mg NUC-3373 in 250 ml 0.9% saline infusion bag, 0 hours, 5° C.
[11] = 3,000 mg NUC-3373 in 250 ml 0.9% saline infusion bag, 0 hours, 20° C.
[12] = 3,000 mg NUC-3373 in 250 ml 0.9% saline infusion bag, 8 hours, 5° C.
[13] = 3,000 mg NUC-3373 in 250 ml 0.9% saline infusion bag, 8 hours, 20° C.
[14] = 3,000 mg NUC-3373 in 250 ml 0.9% saline infusion bag, 24 hours, 5° C.
[15] = 3,000 mg NUC-3373 in 250 ml 0.9% saline infusion bag, 24 hours, 20° C.
[16] = 3,000 mg NUC-3373 in 250 ml 0.9% saline infusion bag, 48 hours, 5° C.
[17] = 3,000 mg NUC-3373 in 250 ml 0.9% saline infusion bag, 48 hours, 20° C.

## C[C@H](NP(=O)(OC[C@H]1O[C@@H](n2cc(F)c(=O)[nH]c2=O)CC1O)Oc1cccc2ccccc12)C(=O)OCc1ccccc1 (stereo partly drawn) [NUC-3373, 5-fluoro-2′-deoxyuridine-5′-O-[1-naphthyl (benzoxy-L-alaninyl)] phosphate]
[1]; [4]
  Osmolarity: 637 mosm/L H20
  Purity: 96.2 % area
  Total NUC-3373: 1892 mg
  pH: 5.5
[1]; [5]
  Assay content NUC-3373: 7.5 mg/mL
  Osmolarity: 633 mosm/L H20
  Purity: 96.1 % area
  Total NUC-3373: 2027 mg
  pH: 5.5
[1]; [6]
  Assay content NUC-3373: 6.9 mg/mL
  Osmolarity: 638 mosm/L H20
  Purity: 96.1 % area
  Total NUC-3373: 1865 mg
  pH: 5.5
[1]; [7]
  Assay content NUC-3373: 7.2 mg/mL
  Osmolarity: 639 mosm/L H20
  Purity: 96.1 % area
  Total NUC-3373: 1946 mg
  pH: 5.5
[1]; [8]
  Assay content NUC-3373: 7.0 mg/mL
  Osmolarity: 635 mosm/L H20
  Purity: 96.1 % area
  Total NUC-3373: 1892 mg
  pH: 5.4
[1]; [9]
  Assay content NUC-3373: 7.1 mg/mL
  Osmolarity: 632 mosm/L H20
  Purity: 96.1 % area
  Total NUC-3373: 1919 mg
  pH: 5.4
[1]; [10]
  Assay content NUC-3373: 10.2 mg/mL
  Osmolarity: 831 mosm/L H20
  Purity: 96.1 % area
  Total NUC-3373: 2857 mg
  pH: 5.5
[1]; [11]
  Assay content NUC-3373: 10.4 mg/mL
  Osmolarity: 818 mosm/L H20
  Purity: 96.1 % area
  Total NUC-3373: 2913 mg
  pH: 5.5
[1]; [12]
  Assay content NUC-3373: 10.4 mg/mL
  Osmolarity: 823 mosm/L H20
  Purity: 96.2 % area
  Total NUC-3373: 2913 mg
  pH: 5.5
[1]; [13]
  Assay content NUC-3373: 10.5 mg/mL
  Osmolarity: 812 mosm/L H20
  Purity: 96.1 % area
  Total NUC-3373: 2941 mg
  pH: 5.5
[1]; [14]
  Assay content NUC-3373: 10.1 mg/mL
  Osmolarity: 825 mosm/L H20
  Purity: 96.1 % area
  Total NUC-3373: 2829 mg
  pH: 5.5
[1]; [15]
  Assay content NUC-3373: 10.4 mg/mL
  Osmolarity: 817 mosm/L H20
  Purity: 96.1 % area
  Total NUC-3373: 2913 mg
  pH: 5.5
[1]; [16]
  Assay content NUC-3373: 10.0 mg/mL
  Osmolarity: 821 mosm/L H20
  Purity: 96.2 % area
  Total NUC-3373: 2801 mg
  pH: 5.6
[1]; [17]
  Assay content NUC-3373: 10.1 mg/mL
  Osmolarity: 812 mosm/L H20
  Purity: 96.1 % area
  Total NUC-3373: 2829 mg
  pH: 5.4
[1]; aqueous infusion solutions at all dose strengths (1,000 mg, 2,000 mg, 3,000 mg in 250 ml 0.9% saline), up to 48 hours at 5° C. and 20° C.
  Stability: stable
[2]; high dose (3,000 mg) NUC-3373 in 500 ml 0.9% saline infusion bag
  Osmolarity: 524 mosm/1
[2]; high dose NUC-3373 (10 mg/ml) using 0.45% saline
  Osmolarity: 715 mosm/l H2O
[2]; high dose NUC-3373 (10 mg/ml) using WFI
  Osmolarity: 557 mosm/l H2O
[2]; high dose NUC-3373 (10 mg/ml; 3,000 mg) in 250 ml 0.9% saline
  Osmolarity: 812 mosm/1
Cancer models
  Activity in vitro: outstanding and far superior to the results obtained with 5-fluorouracil
[3]
  Tolerability: significantly better tolerated than 5-FU
